US12728119B2, “Pharmaceutical composition for preventing or treating cancer comprising 3-ketoacyl CoA thiolase inhibitor and carnitine acylcarnitine carrier inhibitor” (NATIONAL CANCER CENTER, priority 2020, dated 2026)
“And” between values parts separate entries of the source, which are not always exact repeats. Equal values may be shown once.

Columns and labels:
Test in all cases: SRB analysis 2
Format in all cases: cell-based
[1] = system: AsPC-1 pancreatic cancer cells; conditions: 48 hours
Procedure: (§1) The SRB assay was performed as follows: each cell line (100 μl) was seeded into 96-well microtiter plates at densities ranging from 5,000 to 20,000 cells/well depending on the doubling time of each cell line. After cell seeding, microtiter plates were incubated for 24 h before addition of experimental drug. Drugs were prepared at the indicated concentrations and 100 μl was added to each well; The plates were then incubated in a CO2 incubator. Then, cold TCA was added to terminate the assay. Cells were fixed in situ by gentle addition of 50 μl of cold 50% (w/v) TCA (final concentration: 10% TCA) and incubated at 4° C. for 60 min. The supernatant was discarded and the plate was washed 5 times with tap water and then air dried. A solution (100 μl) of 0.4% (w/v) SRB (Sulforhodamine B) in 1% acetic acid was added to each well, and the plate was left at room temperature for 10 minutes. After staining, the plates were air dried after washing 5 times with 1% acetic acid to remove unbound dye. The bound dye was then solubilized with 10 mM trizma base and the absorbance was recorded at 515 nm using an automated plate reader.

[2] = system: BxPC-3 pancreatic cancer cells; conditions: 48 hours
Procedure: as §1

[3] = system: MIA PaCa2 pancreatic cancer cells; conditions: MIA PaCa-2, 48 hours
Procedure: as §1

[4] = system: Panc-1 pancreatic cancer cells; conditions: KN511 50 μM, 48 hours
Procedure: as §1

[5] = system: SNU-213 pancreatic cancer cells; conditions: SNU213; KN511 50 μM; 48 hours
Procedure: as §1

[6] = system: SNU-324 pancreatic cancer cells; conditions: SNU324, 48 hours
Procedure: as §1

[7] = system: SU.86.86 pancreatic cancer cells; conditions: KN511 50 μM, 48 hours
Procedure: as §1

[8] = system: SW1990 pancreatic cancer cells; conditions: 48 hours
Procedure: as §1

Compound: Cc1c(OCC(F)(F)F)ccnc1C[S+]([O-])c1nc2ccccc2[nH]1 (stereo not shown) [KN511, lansoprazole]
- degree of cell growth based on the control (100%) ([1]; KN511 50 μM): 44.46% and 38.02%
- degree of cell growth based on the control (100%) ([1]; KN511 100 μM): 20.33% and 14.98%
- degree of cell growth based on the control (100%) ([2]; KN511 50 μM): 30.51% and 41.39%
- degree of cell growth based on the control (100%) ([2]; KN511 100 μM): −4.87% and −1.66%
- degree of cell growth based on the control (100%) ([3]; KN511 50 μM): 72.22% and 68.24%
- degree of cell growth based on the control (100%) ([3]; KN511 100 μM): 24.61% and 16.12%
- degree of cell growth based on the control (100%) [4]: 65.77% and 39.30%
- degree of cell growth based on the control (100%) [5]: 46.12% and 49.55%
- degree of cell growth based on the control (100%) ([6]; KN511 50 μM): 16.15% and 17.09%
- degree of cell growth based on the control (100%) ([6]; KN511 100 μM): 4.93% and 8.06%
- degree of cell growth based on the control (100%) [7]: 44.93% and 31.47%
- degree of cell growth based on the control (100%) ([8]; KN511 50 μM): 2.62% and 7.49%
- degree of cell growth based on the control (100%) ([8]; KN511 100 μM): −25.25%
